Test results as given in US6670391B2, “Benzopyran derivative and antiallergic agent” (Dainippon Ink and Chemicals, Inc., priority 2001, dated 2003).
Read-outs that look alike come from different tables or passages of the source.

Tested on: male Hartley guinea pigs actively sensitized with egg-white albumin
Assay: Antiallergic Test due to Antigen-Induced Immediate Type Airway Reaction and Delayed Type Airway Reaction
Assay type: in vivo
Conditions: Cavia porcellus, po, 10 mg/kg orally once one hour before induction (prednisolone 10 mg/kg orally twice, 16 hours and 2 hours before)
Method: Using an ultrasonic nebulizer (NE-U12, manufactured by OMRON Corporation), male Hartley guinea pigs (aged six weeks) were actively sensitized by consecutive 8-day inhalation of a 1 wt % physiological saline of egg-white albumin for 10 minutes a day. After one week passed since the final sensitization, an asthmatic disease state was induced by inhalation of a 2 wt % physiological saline of egg-white albumin for 5 minutes in the same manner. To inhibit the synthesis of endogenous steroid, metyrapone (10 mg/kg) was intravenously administered at 24 hours and one hour before the induction. To inhibit anaphylactic shock, pyrilamine (10 mg/kg) was intraperitoneally administered 30 minutes before inducing the asthmatic reaction.
After inducing the asthmatic reaction, the airway resistance (specific airway resistance Raw) was measured for 1 minute before inducing the asthmatic reaction, and 1 minute, 2 hours, 4 hours, 5 hours, 6 hours, 7 hours, 8 hours, and 23-24 hours after inducing the asthmatic reaction, using an airway resistance measuring apparatus (Pulmos-I, manufactured by M.I.P.S.). An average value of the airway resistance was determined, and an airway resistance increase ratio with respect to the value of the airway resistance before the induction was calculated by the following Equation 1.
Each of the test substances (10 mg/kg) listed in Table 1 was suspended in an aqueous 0.5% methyl cellulose solution, and the suspension was orally administered once one hour before inducing the asthmatic reaction. A positive control substance (prednisolone) was orally administered twice at a dosage of 10 mg/kg 16 hours and 2 hours before inducing the asthmatic reaction. The test was carried out on 8 animals per group.
According to this test procedure, a two-phase increase in airway resistance was observed immediately after inducing the asthmatic reaction and after 4-8 hours passed since inducing the asthmatic reaction. In the present invention, the former increase in airway resistance is referred to as the immediate type asthmatic reaction, while the latter increase in airway resistance is referred to as the delayed type asthmatic reaction. With respect to the evaluation of the drug, for the immediate type asthmatic reaction, the inhibition percentage with respect to the asthmatic reaction inhibiting medium administration group (referring to the group wherein a test drug is not administered after inducing the asthmatic reaction, hereinafter merely referred to as the “medium administration group”) was determined by Equation 2 using the airway resistance increase ratio after one minute gas passed since the induction as an index.
For the delayed type asthmatic reaction, the inhibition percentage with respect to the medium administration group was determined by the following Equation 3 using the area under the curve (AUC4-8) of the airway resistance increase ratio up to 4-8 hours after inducing the asthmatic reaction as an index. As an example, the relationship between the airway resistance increase ratio up to 4-8 hours after inducing the asthmatic reaction of the delayed type asthmatic reaction and time in the medium administration group, the prednisolone administration group, and the compound (216) administration group is shown in FIG. 1. As used herein, the area under the curve showing the relationship between the airway resistance increase ratio and time is (AUC4-8)
Airway resistance increase ratio (%)=(airway resistance after inducing the asthmatic airway resistance−airway resistance before inducing the asthmatic reaction)/(airway resistance before inducing the asthmatic reaction)×100
Inhibition (%)=(1−airway resistance increase ratio after one minute has passed since inducing the asthmatic reaction of the test substance administration group/airway resistance increase ratio after one minute has passed since inducing the asthmatic reaction of the medium administration group)×100 […]

[1] = 1 min, airway resistance increase ratio one minute after induction vs medium administration group, read-out: Inhibition (%) against immediate type allergy
[2] = AUC4-8 of airway resistance increase ratio 4-8 hours after induction vs medium administration group, read-out: Inhibition (%) against delayed type allergy

SMILES | inhibition in vivo at 10 mg/kg [1] [%] | inhibition in vivo at 10 mg/kg [2] [%]
CCCCCCOc1c(O)c2cccc(OCC(O)CO)c2oc1=O (centres unmarked) [Compound (349), 3-hexyloxy-4-hydroxy-8-(2,3-dihydroxypropyloxy)-2H-1-benzopyran-2-one] | 12.5 | 57.2
CCCCCCOc1c(O)c2cccc(OCC(=O)O)c2oc1=O [Compound (368), 3-hexyloxy-4-hydroxy-8-hydroxycarbonylmethoxy-2H-1-benzopyran-2-one] | 24.8 | 60
CCCCCCCCOc1c(O)c2cccc(OCCC(=O)O)c2oc1=O [Compound (390), 3-octyloxy-4-hydroxy-8-(2-hydroxycarbonylethoxy)-2H-1-benzopyran-2-one] | 29.7 | 61.1
C[C@]12C=CC(=O)C=C1CC[C@@H]1[C@@H]2[C@@H](O)C[C@@]2(C)[C@H]1CC[C@]2(O)C(=O)CO [Prednisolone, prednisolone, reference compound] | 29 | 51.4
